Source: patent US7550456B2, “Substituted aryl cycloalkanoyl derivatives and methods of their use” (Wyeth, priority 2003, dated 2009)
Counter-ions that a name gives are not always drawn.

Target: T1, human hNET (Homo sapiens, UniProt P23975)
T1 construct: expressed in transfected cells; host or cells: MDCK-Net6 (MDCK cells, stably transfected)
Experiment: Norepinephrine (NE) uptake assay in MDCK-Net6 cells
Type: cell-based
Conditions: 1 μM test compound, [3H]NE uptake, read-out: % Inhibition @ 1 μM (hNET)
Outline: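 Radiolabelled NE uptake was counted by scintillation after NaOH lysis, with 1 µM desipramine defining non-specific uptake. EC50 came from a logistic dose-response fit.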

T1 sequence (P23975 whole entry): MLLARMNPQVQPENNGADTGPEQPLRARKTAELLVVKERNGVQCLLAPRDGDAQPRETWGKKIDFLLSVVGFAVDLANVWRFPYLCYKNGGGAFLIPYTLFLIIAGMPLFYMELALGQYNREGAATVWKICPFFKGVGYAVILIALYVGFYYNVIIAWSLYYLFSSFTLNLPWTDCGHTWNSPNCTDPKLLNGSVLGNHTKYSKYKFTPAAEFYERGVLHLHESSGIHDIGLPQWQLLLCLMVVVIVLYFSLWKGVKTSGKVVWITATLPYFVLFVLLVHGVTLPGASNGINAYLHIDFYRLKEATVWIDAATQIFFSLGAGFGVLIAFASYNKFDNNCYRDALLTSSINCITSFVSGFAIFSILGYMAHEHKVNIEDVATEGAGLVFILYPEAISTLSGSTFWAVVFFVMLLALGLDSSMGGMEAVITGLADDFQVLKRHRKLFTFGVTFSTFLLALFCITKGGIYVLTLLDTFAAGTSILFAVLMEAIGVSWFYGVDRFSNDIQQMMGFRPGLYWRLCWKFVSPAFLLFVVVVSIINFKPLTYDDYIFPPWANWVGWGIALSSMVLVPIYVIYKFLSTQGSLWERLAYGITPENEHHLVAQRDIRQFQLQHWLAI

Row | SMILES | inhibition at 1 µM [%]
1 | CN1CCN(CC(c2ccc(OCc3ccccc3C(F)(F)F)c(Cl)c2)C2(O)CCCCC2)CC1 (centres unmarked) [Example 422, 1-[1-(3-chloro-4-{[2-(trifluoromethyl)benzyl]oxy}phenyl)-2-(4-methylpiperazin-1-yl)ethyl]cyclohexanol dihydrochloride] | 20
2 | OC1(C(CN2CCNCC2)c2ccc(OCc3cccc(C(F)(F)F)c3)c(Cl)c2)CCCCC1 (centres unmarked) [Example 423, 1-[1-(3-chloro-4-{[3-(trifluoromethyl)benzyl]oxy}phenyl)-2-piperazin-1-ylethyl]cyclohexanol dihydrochloride] | 79
3 | CN1CCN(CC(c2ccc(OCc3cccc(C(F)(F)F)c3)c(Cl)c2)C2(O)CCCCC2)CC1 (centres unmarked) [Example 424, 1-[1-(3-chloro-4-{[3-(trifluoromethyl)benzyl]oxy}phenyl)-2-(4-methylpiperazin-1-yl)ethyl]cyclohexanol dihydrochloride] | 75
4 | OC1(C(CN2CCNCC2)c2ccc(OCc3ccc(Br)cc3F)c(Cl)c2)CCCCC1 (centres unmarked) [Example 425, 1-(1-{4-[(4-bromo-2-fluorobenzyl)oxy]-3-chlorophenyl}-2-piperazin-1-ylethyl)cyclohexanol dihydrochloride] | 80
5 | CN1CCN(CC(c2ccc(OCc3ccc(Br)cc3F)c(Cl)c2)C2(O)CCCCC2)CC1 (centres unmarked) [Example 426, 1-[1-{4-[(4-bromo-2-fluorobenzyl)oxy]-3-chlorophenyl}-2-(4-methylpiperazin-1-yl)ethyl]cyclohexanol dihydrochloride] | 84
6 | OC1(C(CN2CCNCC2)c2ccc(OCc3ccc4ccccc4c3)c(Cl)c2)CCCCC1 (centres unmarked) [Example 427, 1-{1-[3-chloro-4-(2-naphthylmethoxy)phenyl]-2-piperazin-1-ylethyl}cyclohexanol dihydrochloride] | 33
7 | OC1(C(CN2CCNCC2)c2ccc(OCc3ccc4ccccc4c3)cc2)CCCCC1 (centres unmarked) [Example 432, 1-{1-[4-(2-naphthylmethoxy)phenyl]-2-piperazin-1-ylethyl}cyclohexanol] | 64
8 | OC1(C(CN2CCNCC2)c2ccc(OCc3ccc(Br)cc3F)cc2)CCCCC1 (centres unmarked) [Example 434, 1-(1-{4-[(4-bromo-2-fluorobenzyl)oxy]phenyl}-2-piperazin-1-ylethyl)cyclohexanol] | 34
9 | OC1(C(CN2CCNCC2)c2ccc(OCc3ccc(C(F)(F)F)cc3)cc2)CCCCC1 (centres unmarked) [Example 436, 1-[2-piperazin-1-yl-1-(4-{[4-(trifluoromethyl)benzyl]oxy}phenyl)ethyl]cyclohexanol dihydrochloride] | 63
10 | OC1(C(CN2CCNCC2)c2ccc(OCc3cccc(C(F)(F)F)c3)cc2)CCCCC1 (centres unmarked) [Example 438, 1-[2-piperazin-1-yl-1-(4-{[3-(trifluoromethyl)benzyl]oxy}phenyl)ethyl]cyclohexanol dihydrochloride] | 69
11 | OC1(C(CN2CCNCC2)c2ccc(OCc3ccccc3C(F)(F)F)cc2)CCCCC1 (centres unmarked) [Example 440, 1-[2-piperazin-1-yl-1-(4-{[2-(trifluoromethyl)benzyl]oxy}phenyl)ethyl]cyclohexanol dihydrochloride] | 28
12 | COc1cc(C(CN2CCNCC2)C2(O)CCCCC2)ccc1OCc1ccccc1 (centres unmarked) [Example 442, 1-{1-[4-(benzyloxy)-3-methoxyphenyl]-2-piperazin-1-ylethyl}cyclohexanol dihydrochloride] | 57
13 | COc1cc(C(CN2CCNCC2)C2(O)CCCCC2)ccc1OCc1ccc2ccccc2c1 (centres unmarked) [Example 444, 1-{1-[3-methoxy-4-(2-naphthylmethoxy)phenyl]-2-piperazin-1-ylethyl}cyclohexanol dihydrochloride] | 98
14 | COc1cc(C(CN2CCN(C)CC2)C2(O)CCCCC2)ccc1OCc1ccc2ccccc2c1 (centres unmarked) [Example 445, 1-[1-[3-methoxy-4-(2-naphthylmethoxy)phenyl]-2-(4-methylpiperazin-1-yl)ethyl]cyclohexanol dihydrochloride] | 22
15 | COc1cc(C(CN2CCNCC2)C2(O)CCCCC2)ccc1OCc1ccc(Br)cc1F (centres unmarked) [Example 446, 1-(1-{4-[(4-bromo-2-fluorobenzyl)oxy]-3-methoxyphenyl}-2-piperazin-1-ylethyl)cyclohexanol] | 69
16 | COc1cc(C(CN2CCN(C)CC2)C2(O)CCCCC2)ccc1OCc1ccc(Br)cc1F (centres unmarked) [Example 447, 1-[1-{4-[(4-bromo-2-fluorobenzyl)oxy]-3-methoxyphenyl}-2-(4-methylpiperazin-1-yl)ethyl]cyclohexanol] | 97
17 | COc1cc(C(CN2CCNCC2)C2(O)CCCCC2)ccc1OCc1ccc(C(F)(F)F)cc1 (centres unmarked) [Example 448, 1-[1-(3-methoxy-4-{[4-(trifluoromethyl)benzyl]oxy}phenyl)-2-piperazin-1-ylethyl]cyclohexanol dihydrochloride] | 78
18 | COc1cc(C(CN2CCN(C)CC2)C2(O)CCCCC2)ccc1OCc1ccc(C(F)(F)F)cc1 (centres unmarked) [Example 449, 1-[1-(3-methoxy-4-{[4-(trifluoromethyl)benzyl]oxy}phenyl)-2-(4-methylpiperazin-1-yl)ethyl]cyclohexanol dihydrochloride] | 88
19 | COc1cccc(COc2ccc(C(CN3CCNCC3)C3(O)CCCCC3)cc2Cl)c1 (centres unmarked) [Example 454, 1-(1-{3-chloro-4-[(3-methoxybenzyl)oxy]phenyl}-2-piperazin-1-ylethyl)cyclohexanol dihydrochloride] | 99
20 | COc1cccc(COc2ccc(C(CN3CCN(C)CC3)C3(O)CCCCC3)cc2Cl)c1 (centres unmarked) [Example 455, 1-[1-{3-chloro-4-[(3-methoxybenzyl)oxy]phenyl}-2-(4-methylpiperazin-1-yl)ethyl]cyclohexanol dihydrochloride] | 99
21 | COc1ccccc1COc1ccc(C(CN2CCNCC2)C2(O)CCCCC2)cc1Cl (centres unmarked) [Example 456, 1-(1-{3-chloro-4-[(2-methoxybenzyl)oxy]phenyl}-2-piperazin-1-ylethyl)cyclohexanol dihydrochloride] | 90
22 | COc1ccccc1COc1ccc(C(CN2CCN(C)CC2)C2(O)CCCCC2)cc1Cl (centres unmarked) [Example 457, 1-[1-{3-chloro-4-[(2-methoxybenzyl)oxy]phenyl}-2-(4-methylpiperazin-1-yl)ethyl]cyclohexanol dihydrochloride] | 77

Results, then the molecule that gave them:

Row | inhibition at 1 µM [%] | SMILES
23 | 49 | CN1CCN(CC(c2ccc(OCc3ccc4ccccc4c3)cc2)C2(O)CCCCC2)CC1 (centres unmarked) [Example 433, 1-{2-(4-methylpiperazin-1-yl)-1-[4-(2-naphthylmethoxy)phenyl]ethyl}cyclohexanol]
24 | 85 | CN1CCN(CC(c2ccc(OCc3ccc(Br)cc3F)cc2)C2(O)CCCCC2)CC1 (centres unmarked) [Example 435, 1-[1-{4-[(4-bromo-2-fluorobenzyl)oxy]phenyl}-2-(4-methylpiperazin-1-yl)ethyl]cyclohexanol dihydrochloride]
25 | 38 | CN1CCN(CC(c2ccc(OCc3ccc(C(F)(F)F)cc3)cc2)C2(O)CCCCC2)CC1 (centres unmarked) [Example 437, 1-[2-(4-methylpiperazin-1-yl)-1-(4-{[4-(trifluoromethyl)benzyl]oxy}phenyl)ethyl]cyclohexanol dihydrochloride]
26 | 79 | CN1CCN(CC(c2ccc(OCc3cccc(C(F)(F)F)c3)cc2)C2(O)CCCCC2)CC1 (centres unmarked) [Example 439, 1-[2-(4-methylpiperazin-1-yl)-1-(4-{[3-(trifluoromethyl)benzyl]oxy}phenyl)ethyl]cyclohexanol dihydrochloride]
27 | 33 | CN1CCN(CC(c2ccc(OCc3ccccc3C(F)(F)F)cc2)C2(O)CCCCC2)CC1 (centres unmarked) [Example 441, 1-[2-(4-methylpiperazin-1-yl)-1-(4-{[2-(trifluoromethyl)benzyl]oxy}phenyl)ethyl]cyclohexanol dihydrochloride]
28 | 90 | COc1cc(C(CN2CCN(C)CC2)C2(O)CCCCC2)ccc1OCc1ccccc1 (centres unmarked) [Example 443, 1-[1-[4-(benzyloxy)-3-methoxyphenyl]-2-(4-methylpiperazin-1-yl)ethyl]cyclohexanol dihydrochloride]
29 | 35 | OC1(C(CN2CCNCC2)c2ccc(OCCc3ccccc3)c(Cl)c2)CCCCC1 (centres unmarked) [Example 452, 1-{1-[3-chloro-4-(2-phenylethoxy)phenyl]-2-piperazin-1-ylethyl}cyclohexanol dihydrochloride]
30 | 82 | CN1CCN(CC(c2ccc(OCCc3ccccc3)c(Cl)c2)C2(O)CCCCC2)CC1 (centres unmarked) [Example 453, 1-[1-[3-chloro-4-(2-phenylethoxy)phenyl]-2-(4-methylpiperazin-1-yl)ethyl]cyclohexanol dihydrochloride]
31 | 58 | OC1(C(CN2CCNCC2)c2ccc(OCCc3ccccc3)cc2)CCCCC1 (centres unmarked) [Example 459, 1-{1-[4-(2-phenylethoxy)phenyl]-2-piperazin-1-ylethyl}cyclohexanol dihydrochloride]
32 | 82 | CN1CCN(CC(c2ccc(OCCc3ccccc3)cc2)C2(O)CCCCC2)CC1 (centres unmarked) [Example 460, 1-{2-(4-methylpiperazin-1-yl)-1-[4-(2-phenylethoxy)phenyl]ethyl}cyclohexanol dihydrochloride]
33 | 47 | OC1(C(CN2CCNCC2)c2ccc(OCCc3ccc(F)cc3)cc2)CCCCC1 (centres unmarked) [Example 462, 1-(1-{4-[2-(4-fluorophenyl)ethoxy]phenyl}-2-piperazin-1-ylethyl)cyclohexanol dihydrochloride]
34 | 69 | CN1CCN(CC(c2ccc(OCCc3ccc(F)cc3)cc2)C2(O)CCCCC2)CC1 (centres unmarked) [Example 463, 1-[1-{4-[2-(4-fluorophenyl)ethoxy]phenyl}-2-(4-methylpiperazin-1-yl)ethyl]cyclohexanol dihydrochloride]
35 | 33 | OC1(C(CN2CCNCC2)c2ccc(OCCc3cccc4ccccc34)cc2)CCCCC1 (centres unmarked) [Example 464, 1-(1-{4-[2-(1-naphthyl)ethoxy]phenyl}-2-piperazin-1-ylethyl)cyclohexanol dihydrochloride]
